Several values for one entry are separate records, joined by “and”; a condition that tells them apart may be missing. Equal entries are not always repeated. Structures can show the parent of a compound that is named as a salt. Where two headings read alike, the source gives them in different places.
Experiments:
[1] = biological target: T1, beta adrenergic receptor (guinea pig right atria) (Cavia porcellus, UniProt H0W3H1); assay: Beta-blocking activity in vitro, guinea pig right atria (blockade of isoproterenol rate response)
T1 construct: guinea pig right atria and guinea pig tracheal strips mounted in a tissue bath; from tissue; host or cells: guinea pig right atria, spontaneously beating
T1 sequence (H0W3H1 1-470): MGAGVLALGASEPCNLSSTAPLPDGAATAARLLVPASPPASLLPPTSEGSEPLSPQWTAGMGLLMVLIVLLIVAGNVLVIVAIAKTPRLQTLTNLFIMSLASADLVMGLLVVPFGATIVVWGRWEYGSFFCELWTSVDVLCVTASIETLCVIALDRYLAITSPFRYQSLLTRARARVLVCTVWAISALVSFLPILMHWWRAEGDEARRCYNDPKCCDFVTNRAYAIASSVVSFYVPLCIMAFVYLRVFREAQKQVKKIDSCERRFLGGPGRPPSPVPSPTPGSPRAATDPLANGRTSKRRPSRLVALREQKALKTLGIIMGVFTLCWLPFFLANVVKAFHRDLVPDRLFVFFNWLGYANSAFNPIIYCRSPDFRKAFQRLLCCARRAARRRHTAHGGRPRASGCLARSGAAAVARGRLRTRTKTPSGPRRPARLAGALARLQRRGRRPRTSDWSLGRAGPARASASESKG

[2] = tested on: beta adrenergic receptor (heart rate response to isoproterenol); assay: Duration and potency of beta-blocking action in vivo, 3-hour infusion in pentobarbital-anesthetized dogs; parameters: species or system dog; conditions: for % Inhibition / Time for 50% Rec. / Time for 80% Rec.: Table IV, dose 2.4 / 22.0 ug/kg/min.; for Potency / % I (Percent inhibition of heart rate response to isoproterenol) / Recovery Time 50% / Recovery Time 80%: Table II; for Potency: infusion rate adjusted so isoproterenol inhibition averaged about 50% at end of 3-hour infusion; for % I (Percent inhibition of heart rate response to isoproterenol): isoproterenol 0.5 μg/kg bolus, 3-hour infusion; for Recovery Time 50% / Recovery Time 80%: after termination of 3-hour infusion
Description: The duration of β-blockade was determined in vivo using pentobarbital-anesthetized dogs instrumented for measurement of heart rate using a Beckman cardiotachometer triggered electronically by a phasic aortic blood pressure signal. Both vagus nerves were severed in the cervical region and the animals were mechanically ventilated. The experimental design used employed a 3-hour infusion of test compound. Bolus doses of isoproterenol (0.5 μg/kg) were used to assess the degree of β-blockade and recovery from β-blockade after […] of the infusion. The doses were spaced at 10-minute intervals and were given before, during and following the infusion of test compounds. The infusion rate was adjusted so that at the end of the 3-hour infusion period the degree of isoproterenol inhibition averaged about 50% of control. Following termination of blocker infusion, percent recovery from β-blockade was computed and the time associated with 80% recovery estimated.

[3] = Enzymatic hydrolysis of beta blockers by dog liver homogenate (procedure C); type: in vitro ADME; conditions: for remaining at 1 h / remaining at 2 h: dog, liver homogenate, 37° C.; for remaining at 1 h: read-out: Percent drug remaining, dog liver homogenate, 1 HR; for remaining at 2 h: read-out: Percent drug remaining, dog liver homogenate, 2 HR
Description: (§1) Chemicals--Acetonitrile was "HPLC" grade. Distilled water was used to dissolve the compounds and 0.01N HCl was used to dissolve compounds requiring an acidic pH for dissolution.
(§2) Enzyme Source--Fresh aqueous humor was collected from eyes of dogs using a 23-gauge needle while fresh dog blood was collected into heparinized Vacutainer tubes. Fresh liver was homogenized in 0.9% NaCl using a Potter-Elvehjem Teflon pestle and glass homogenizer making a 25% (W/V) homogenate.
(§3) Incubation Condition--A 0.5 ml aliquot of dog aqueous humor, blood or liver homogenate was incubated with 12.5 μg (0.5 ml) of beta blocker in a Dubnoff shaking metabolic incubator at 37° C. for 60 and 120 min. Denatured tissue controls were prepared by adding 2.0 ml of acetonitrile into 0.5 ml of aqueous humor, blood or liver homogenate to destroy esterase activities prior to addition of the beta blockers. The controls were then incubated at 37° C. for 120 min. After 60 and 120 min, the incubations were terminated by addition of 2 ml of acetonitrile and immediately mixed by a Vortex® to stop esterase activities.
(§4) Sample Processing and Data Analyses--All samples were centrifuged at 4000 RPM for 10 min to sediment denatured proteins. The resultant supernatants were transferred to WISP® vials and analyzed using an HPLC assay developed for beta blockers. The hydrolysis of beta blockers by aqueous humor, blood and liver homogenate was determined by disappearance of the compounds. The extent of enzymatic hydrolysis by each tissue was determined by comparing the amount of each compound (absolute peak area) recovered at each time point to the amount of each compound (absolute peak area) in denatured tissue control and aqueous control samples. The results of these experiments are shown in Tabe III.

[4] = Half-lives of beta blockers in dog liver homogenate (procedure D); type: in vitro ADME; conditions: 33% (w/v) homogenate, 37° C., read-out: T1/2 dog liver homogenate
Description: (§5) The rate of disappearance of a compound is expressed as the half-life (T1/2), which is the time period in which one half of the initial amount of compound tested disappears. In each experiment, 1 ml of a solution containing 50 μg of the test compound was added to 1 ml of whole blood or 1 ml of a 33% (w/v) liver homogenate. The samples were incubated in a Dubnoff shaking metabolic incubator for 2.5, 5.0, 10.0, 20.0, 30.0 and 60.0 minutes at 37° C. At the designated time periods, the test mixtures were removed from the incubator and transferred to a 0° C. ice bath. Acetonitrile (2 ml) was immediately added and the mixtures were mixed to stop enzymatic hydrolysis. Zero time samples were prepared by adding 2 ml of acetonitrile to denature the proteins prior to addition of the test compounds. After centrifugation to sediment denatured proteins, 2 ml of the supernatant was removed and analyzed by high pressure liquid chromatography, using a mobile phase of 60% acetonitrile/40% 0.05 m sodium phosphate buffer (pH 6.6), a U.V. detector and Waters u Bondapak Phenyl column. The half life of each test compound was determined graphically by plotting the decrease in concentrations as a function of time.

[5] = Half-lives of beta blockers in dog whole blood (procedure D); type: in vitro ADME; conditions: 37° C., read-out: T1/2 dog blood
Description: as §5

[6] = Enzymatic hydrolysis of beta blockers by dog aqueous humor (procedure C); type: in vitro ADME; conditions: for remaining at 1 h / remaining at 2 h: 37° C.; for remaining at 1 h: read-out: Percent drug remaining, dog aqueous humor, 1 HR; for remaining at 2 h: read-out: Percent drug remaining, dog aqueous humor, 2 HR; for half-life: approximate value determined by procedure C, read-out: T1/2 dog aqueous humor
Description: as §1, §2, §3, §4

[7] = Enzymatic hydrolysis of beta blockers by dog blood (procedure C); type: in vitro ADME; conditions: for remaining at 1 h / remaining at 2 h: dog, blood, 37° C.; for remaining at 1 h: read-out: Percent drug remaining, dog blood, 1 HR; for remaining at 2 h: read-out: Percent drug remaining, dog blood, 2 HR
Description: as §1, §2, §3, §4

[8] = Table I, guinea pig right atria, isoproterenol agonist, 60-minute incubation, 37° C., read-out: PA2 Rt. Atria (converted)

CC(C)(CNC(=O)N1CCOCC1)NCC(O)COC(=O)c1ccco1 (stereo not shown)
pA2 (atria) ([1]; Table IV): 7.6 | % Inhibition [2]: 40% | Time for 50% Rec. [2]: 9 min | Time for 80% Rec. [2]: 30 min

CC(C)(CNC(=O)N1CCCCC1)NCC(O)COC(=O)c1ccco1 (stereo not shown)
Kb ([1]; Table IV, read-out: pA2 (atria) (converted)): 0.1 µM | % Inhibition [2]: 59% | Time for 50% Rec. [2]: 5 min | Time for 80% Rec. [2]: 17 min

CC(C)NC[C@H](O)COc1cccc2ccccc12 (racemic) [Propanolol, reference compound]
Potency [2]: 0.2 mg/kg/180 min | % I (Percent inhibition of heart rate response to isoproterenol) [2]: 67 ± 6%

CC(C)C(=O)NCCNCC(O)COC(=O)c1ccccc1F (stereo not shown) [Example I, 3-[[2-(Isopropylcarbonylamino)]ethyl]amino-2-hydroxypropyl 2-Fluorobenzoate Hydrochloride]
Kb [1, 8]: 0.794 µM

CC(C)C(=O)NCC(C)(C)NCC(O)COC(=O)c1ccccc1F (stereo not shown) [Example V, 3-[1,1-Dimethyl-2-(isopropylcarbonylamino)]ethylamino-2-hydroxypropyl 2-Fluorobenzoate Oxalate Monohydrate]
remaining at 1 h [3]: 0% | remaining at 2 h [3]: 0% | half-life [4]: 3.5 min | half-life [5]: 20 min | remaining at 1 h [6]: 75% | remaining at 2 h [6]: 49% | half-life [6]: ~120 min | Kb [1, 8]: 0.158 µM | remaining at 1 h [7]: 12% | remaining at 2 h [7]: 8% | experiments did not recover to 80% within 60 min ([2]; Table II footnote c): 2/6 | Recovery Time 50% [2]: 10 ± 2 min | Recovery Time 80% [2]: 22 ± 6 min | Potency [2]: 0.6 mg/kg/180 min | % I (Percent inhibition of heart rate response to isoproterenol) [2]: 62 ± 5%

CC(C)(CNC(=O)C1CCCCC1)NCC(O)COC(=O)c1ccccc1F (stereo not shown) [Example VI, 3-[1,1-Dimethyl-2-(cyclohexylcarbonylamino)]ethylamino-2-hydroxypropyl 2-Fluorobenzoate Oxalate]
Kb [1, 8]: 0.02 µM | Recovery Time 50% [2]: 8 ± 3 min | Recovery Time 80% [2]: 12 ± 3 min | Potency [2]: 1.4 mg/kg/180 min | % I (Percent inhibition of heart rate response to isoproterenol) [2]: 61%

CC(C)(CNC(=O)Cc1ccccc1)NCC(O)COC(=O)c1ccccc1F (stereo not shown) [Example VII, 3-[1,1-Dimethyl-2-(benzylcarbonylamino)]ethylamino-2-hydroxypropyl 2-Fluorobenzoate Hydrochloride]
remaining at 1 h [3]: 0% | remaining at 2 h [3]: 0% | hydrolysis in liver homogenate ([3]; within 60 minutes): completely hydrolyzed | half-life [4]: 25 min | half-life [5]: 6 min | remaining at 1 h [6]: 69% | remaining at 2 h [6]: 46% | half-life [6]: ~120 min | metabolised at 1 h ([6]; one hour, read-out: hydrolyzed in aqueous humor after one hour): 31% | metabolised at 2 h ([6]; two hours, read-out: hydrolyzed in aqueous humor after two hours): 54% | Kb [1, 8]: 0.0398 µM | remaining at 1 h [7]: 0% | remaining at 2 h [7]: 0% | hydrolysis in dog blood ([7]; within 60 minutes): completely hydrolyzed | Recovery Time 50% [2]: 8 min | Recovery Time 80% [2]: 19 min | Potency [2]: 1.8 mg/kg/180 min | % I (Percent inhibition of heart rate response to isoproterenol) [2]: 68%

CNC(=O)NCC(C)(C)NCC(O)COC(=O)c1ccccc1F (stereo not shown) [Example XI, 3-[1,1-Dimethyl-2-(methylaminocarbonylamino)]ethylamino-2-hydroxypropyl 2-Fluorobenzoate Hemioxalate]
Kb [1, 8]: 0.316 µM | Recovery Time 80% [2]: > 60 min | Potency [2]: 0.2 mg/kg/180 min | % I (Percent inhibition of heart rate response to isoproterenol) [2]: 81% and 71%

CC(C)(CNC(=O)N1CCOCC1)NCC(O)COC(=O)c1ccc(O)c(O)c1 (stereo not shown) [Example XXXV, 3-[2-[1,1-Dimethyl-2-(1-morpholinocarbonylamino)]ethyl]amino-2-hydroxypropyl 3,4-Dihydroxybenzoate Oxalate Monohydrate]
Kb [1, 8]: 0.00631 µM

CC(=O)NCC(C)NCC(O)COC(=O)c1ccccc1F (stereo not shown) [III, 3-[1-methyl-2-(methylcarbonylamino)]ethylamino-2-hydroxypropyl 2-Fluorobenzoate]
Kb [1, 8]: > 0.501 µM

CC(=O)NCC(C)(C)NCC(O)COC(=O)c1ccccc1F (stereo not shown) [IV, 3-[1,1-Dimethyl-2-(methylcarbonylamino)]ethylamino-2-hydroxypropyl 2-Fluorobenzoate]
remaining at 1 h [3]: 39% | remaining at 2 h [3]: 23% | half-life [5]: 7.5 min | remaining at 1 h [6]: 87% | remaining at 2 h [6]: 52% | half-life [6]: ~120 min | Kb [1, 8]: 0.0316 µM | remaining at 1 h [7]: 0% | remaining at 2 h [7]: 0% | Recovery Time 50% [2]: 7 min | Recovery Time 80% [2]: 35 min | Potency [2]: 2.7 mg/kg/180 min | % I (Percent inhibition of heart rate response to isoproterenol) [2]: 61%

CC(C)(CNS(=O)(=O)c1ccccc1)NCC(O)COC(=O)c1ccccc1F (stereo not shown) [VIII, 3-[1,1-Dimethyl-2-(phenylsulfonylamino)]ethylamino-2-hydroxypropyl 2-Fluorobenzoate Oxalate]
remaining at 1 h [3]: 0% | remaining at 2 h [3]: 0% | half-life [5]: 15 min | Kb [1, 8]: 0.1 µM | remaining at 1 h [7]: 0% | remaining at 2 h [7]: 0% | % I (Percent inhibition of heart rate response to isoproterenol) [2]: 43% and 55%

O=C(Cc1ccccc1)NCCNCC(O)COC(=O)c1ccccc1F (stereo not shown) [XIII, 3-[2-(Benzylcarbonylamino)ethyl]amino-2-hydroxypropyl 2-Fluorobenzoate Hydrochloride]
Kb [1, 8]: > 1 µM

COCCOC(=O)NCC(C)(C)NCC(O)COC(=O)c1ccccc1F (stereo not shown) [XXXI, 3-[1,1-Dimethyl-2-[2-[(2-methoxy)ethoxycarbonylamino]]ethylamino-2-hydroxypropyl 2-Fluorobenzoate Oxalate]
Kb [1, 8]: 0.02 µM

CN(C)S(=O)(=O)NCC(C)(C)NCC(O)COC(=O)c1ccccc1F (stereo not shown) [XXXII, 3-[1,1-Dimethyl-2-(dimethylaminosulfonylamino)]ethylamino-2-hydroxypropyl 2-Fluorobenzoate Oxalate]
Kb [1, 8]: 0.0398 µM

CC(C)(CNC(=O)N1CCOCC1)NCC(O)COC(=O)c1ccccc1 (stereo not shown) [XXXIII, 3-[1,1-Dimethyl-2-(1-morpholinocarbonylamino)]ethylamino-2-hydroxypropyl Benzoate Oxalate Hemihydrate]
Kb [1, 8]: 0.00501 µM

CC(C)(CNC(=O)N1CCOCC1)NCC(O)COC(=O)c1ccccc1Cl (stereo not shown) [XXXIV, 3-[1,1-Dimethyl-2-(1-morpholinocarbonylamino)]ethylamino-2-hydroxypropyl 2-Chlorobenzoate Oxalate]
Kb [1, 8]: 0.0126 µM

CC(C)(CNC(=O)N1CCOCC1)NCC(O)COC(=O)c1ccc(O)cc1 (stereo not shown) [XXXVI, 3-[1,1-Dimethyl-2-(1-morpholinocarbonylamino)]ethylamino-2-hydroxypropyl 4-Hydroxbenzoate Oxalate]
Kb [1, 8]: 0.00794 µM

Cc1cc(O)ccc1C(=O)OCC(O)CNC(C)(C)CNC(=O)N1CCOCC1 (stereo not shown) [XXXVII, 3-[1,1-Dimethyl-2-(1-morpholinocarbonylamino)]ethylamino-2-hydroxypropyl 2-Methyl-4-hydroxybenzoate Oxalate]
PA2 Rt. Atria ([1]; Table I, guinea pig right atria, isoproterenol agonist, 60-minute incubation, 37° C.): 8.2
